Test results: patent US7049080B2, “Process for detecting serine/threonine kinase activity” (priority 2000, dated 2006)
Non-standard residues stand in square brackets, D forms with d. pY = N[C@@H](Cc1ccc(OP(=O)(O)O)cc1)C(=O)O

Assays:
[1] = test system: NEB antibody #9251; assay: FP controls conjugate/high/low (Example 8); assay type: binding, rabbit; conditions: Low: P1*°-Tamra + NEB ab (1:20) + competitor 200 nM, 0 h
Experimental: The following reagents have been used (explanations later on): Hepes buffer, MgCl2 (10 mM), ATP (20 μM), P1^∘ peptide (100 μM), polyclonal antibody NEB #9251 (1:20), P1*^∘-TAMRA (5 nM), Pluronic (0.1%), BSA (0.01%), MKK7 at (0.04, 0.08 and 0.2 μM), EDTA (10 mM) (all final conc.).
The enzyme reactions were performed in Eppendorf reaction tubes at RT. Aliquots of 20 μl were withdrawn from the reactions at different time points and mixed with 10 μl STOP solution. The stopped reactions were incubated at RT for at least 30 min and measured by Fluorescence Polarization.
Bis-phosphorylated peptide P1*^∘ can be used as competitor, resulting in free labelled ligand called “low” or “negative control”. This can be seen in the following table 1.

[2] = target: T1, MKK7 (Homo sapiens, UniProt O14733); assay: Determination of Km for ATP (MKK7 phosphorylation, FP read-out); assay type: biochemical; conditions: MKK7 80 nM, P1° 100 μM, RT
T1 construct: purchased Upstate Biotech 14-366
T1 sequence (O14733 1-419): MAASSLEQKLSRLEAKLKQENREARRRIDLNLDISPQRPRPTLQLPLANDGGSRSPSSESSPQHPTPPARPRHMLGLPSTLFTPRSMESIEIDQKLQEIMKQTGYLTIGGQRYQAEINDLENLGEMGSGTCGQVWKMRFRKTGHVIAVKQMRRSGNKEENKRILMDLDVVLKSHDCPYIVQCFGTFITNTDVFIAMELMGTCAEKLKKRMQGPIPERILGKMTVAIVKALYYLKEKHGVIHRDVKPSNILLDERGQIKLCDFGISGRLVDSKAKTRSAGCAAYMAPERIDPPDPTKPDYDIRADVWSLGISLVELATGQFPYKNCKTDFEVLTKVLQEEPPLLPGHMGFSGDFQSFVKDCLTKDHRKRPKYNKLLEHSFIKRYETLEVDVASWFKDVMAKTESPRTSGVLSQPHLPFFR
Experimental: Efficient phosphorylation of P1^∘ peptide is dependent on the optimal ATP concentration. […] From the detected fluorescence polarization signals, the Michaelis-Menten constant (Km), reflecting the half-maximal phosphorylation rate, was determined for ATP.
Determination of Km for ATP (Read-out: Fluorescence Polarization): […]

| Molecule | Fluorescence Polarization [1] | Vmax [2] |
| --- | --- | --- |
| H-Lys-Phe-Met-Met-Thr-Pro-pTyr-Val-Val-Thr-Arg-NH2 (H-KFMMTP[pY]VVTR-NH2; SMILES CSCC[C@H](NC(=O)[C@H](Cc1ccccc1)NC(=O)[C@@H](N)CCCCN)C(=O)N[C@@H](CCSC)C(=O)N[C@H](C(=O)N1CCC[C@H]1C(=O)N[C@@H](Cc1ccc(OP(=O)(O)O)cc1)C(=O)N[C@H](C(=O)N[C@H](C(=O)N[C@H](C(=O)N[C@@H](CCCNC(=N)N)C(N)=O)[C@@H](C)O)C(C)C)C(C)C)[C@@H](C)O) [P1^∘] | 71.5 mP | – |
| Nc1ncnc2c1ncn2[C@@H]1O[C@H](COP(=O)(O)OP(=O)(O)OP(=O)(O)O)[C@@H](O)[C@H]1O [ATP] | – | 0.28 mP/min |
